Source: US20230141284A1, “CANCER THERAPEUTIC METHOD” (ONO PHARMACEUTICAL CO., LTD., priority 2020, published 2023)

Columns and labels:
Format in all cases: cell-based
[1] = system: human B-cell lymphoma cell lines (DOHH2 and OLI-Ly3); experiment: Anti-tumor effects in combination with Navitoclax, human B-cell lymphoma cell lines; conditions: combination with Compound B 1000 nmol/L, DOHH2 and OLI-Ly3, 48 hours
Procedure: (§1) The anti-tumor effects of the STING agonistic compounds pertaining to the present invention and combination thereof with anti-neoplastic agents were evaluated on several human acute myeloid leukemia cell lines (KG-1α, THP-1 and CMK) and human B-cell lymphoma cell lines (DOHH2 and OLI-Ly3) below.
The cell lines above were suspended in medium (RPMI 1640 containing 10% FBS and 1% Penicillin-Streptomycin), respectively, and seeded into 96-well plates at a density of 2.5 to 5×10^4 cells/well. Immediately after seeding, mediums containing Compound B prepared, respectively, such that the final concentrations after addition to the mediums become 0, 10, 30, 100, 300, and 1000 nmol/L and anti-neoplastic agents prepared such that those become the following final concentrations, respectively, were added to each well and mixed well. […]
After culturing the cell lines for 48 hours at 37° C. and 5% CO2, 10 μL of Cell Counting Kit-8 (Dojindo) was added to each well, and after incubation for 60 minutes, the absorbance (450 nm) in each well was measured using a microplate reader. […] In the figures, the “signal intensity” on the vertical axis represents the absorbance value (450 nm), and the lower the value, the higher the anti-tumor effect.

[2] = system: IRF (Interferon Regulatory Factor) pathway; experiment: Effect on IRF (Interferon Regulatory Factor) pathway, Quanti-luc reporter cells; conditions: activation of the IRF pathway, luminescence, about 24 hours incubation
Procedure: The cells mainly described at lines 12-20 of the right column on page 183 in Mol Immunol. 2017, Vol. 90, p. 182-189 were suspended in RPMI medium to prepare 2×10^6 cells/mL of cell suspension. 50 μL of the cell suspensions were dispensed into a 96-well plate, to which 50 μL of 6 to 20,000 nmol/L compound solutions were added. After adding the compound, the mixture thereof was incubated at 37° C. for about 24 hours. After incubation, 10 μL of cell suspensions were collected from each well, which were mixed with 50 μL of Quanti-luc (Invivogen). Then, the activation of the IRF pathway was measured by detecting luminescence using a microplate reader (Molecular Devices).

[3] = system: human acute myeloid leukemia cell lines; experiment: Anti-tumor effect on human acute myeloid leukemia cell lines (Cell Counting Kit-8); conditions: administration alone, 100 to 1000 nmol/L, 48 hours
Procedure: The compound prepared in Example 3 (Compound B) was evaluated for anti-tumor activity against several human acute myeloid leukemia cell lines shown in the table of FIG. 13.
The cell lines above were suspended in medium (RPMI 1640 containing 10% FBS and 1% Penicillin-Streptomycin), respectively, and seeded into 96-well plates at a density of 5.0×10^4 cells/well. Immediately after seeding, mediums containing Compound B and Vehicle (0.1% at the final concentration of DMSO solution after addition to the medium), respectively, were added to each well and mixed well. The final concentration of Compound B after addition to the medium was prepared to be 100 to 1000 nmol/L, respectively. After culturing the cell lines for 48 hours at 37° C. and 5% CO2, 10 μL of Cell Counting Kit-8 (Dojindo) was added to each well, and after incubation for 60 minutes, the absorbance (450 nm) in each well was measured using a microplate reader. EC50 value was calculated from the absorbance value using Graphpad prism (Graphpad Software) to evaluate the effect of Compound B on cell proliferation. […] Relative cell count was calculated according to the following formula. Relative minimum cell count represents the minimum value of the above values.
Relative cell count (%)=(Absorbance (450 nm) in addition of Compound B−blank)/(Absorbance (450 nm) in addition of Vehicle (0.1% DMSO)−blank)×100 [Formula 1]

[4] = system: human acute myeloid leukemia cell lines (KG-1α, THP-1 and CMK); experiment: Anti-tumor effects in combination with anti-neoplastic agents, human acute myeloid leukemia cell lines; conditions: combination with Compound B 10 to 1000 nmol/L, 48 hours, absorbance 450 nm
Procedure: as §1
The cell lines above were suspended in medium (RPMI 1640 containing 10% FBS and 1% Penicillin-Streptomycin), respectively, and seeded into 96-well plates at a density of 2.5 to 5×10^4 cells/well. Immediately after seeding, mediums containing Compound B prepared, respectively, such that the final concentrations after addition to the mediums become 0, 10, 30, 100, 300, and 1000 nmol/L and anti-neoplastic agents prepared such that those become the following final concentrations, respectively, were added to each well and mixed well. As a control, DMSO solution prepared such that the final concentration becomes 0.10% after addition to the medium was added thereto, separately. • Venetoclax (final concentrations: 0, 1, 10, 100, 1000, and 10000 nmol/L, respectively), • Cytarabine (final concentrations: 0, 1, 10, 100, 1000, and 10000 nmol/L, respectively), • Azacitidine (final concentrations: 0, 1, 10, 100, 1000, and 10000 nmol/L, respectively), and • Navitoclax (final concentrations: 0, 50, 500, and 5000 nmol/L, respectively) (the concentration of Compound B in combination with Navitoclax is 1000 nmol/L).
After culturing the cell lines for 48 hours at 37° C. and 5% CO2, 10 μL of Cell Counting Kit-8 (Dojindo) was added to each well, and after incubation for 60 minutes, the absorbance (450 nm) in each well was measured using a microplate reader. FIGS. 13, 14, and 15 show results thereof, respectively. In the figures, the “signal intensity” on the vertical axis represents the absorbance value (450 nm), and the lower the value, the higher the anti-tumor effect.

Compound: CC(=O)c1cc(-c2ncc(-c3cn[nH]c3)c3onc(N)c23)c(F)cc1N [Example 3, 1-(2-amino-5-(3-amino-7-(1H-pyrazol-4-yl)isoxazolo[4,5-c]pyridin-4-yl)-4-fluorophenyl)ethan-1-one]
- anti-tumor activity of Navitoclax [1]: enhanced
- EC50 [2]: 40 nM
- anti-tumor effect (cell proliferation) [3]: significant anti-tumor effect
- anti-tumor activity of Azacitidine [4]: enhanced
- anti-tumor activity of Cytarabine [4]: enhanced
- anti-tumor activity of Venetoclax [4]: enhanced
